T/C data for 21 compounds are collected here from PubChem BioAssay AID264 (DTP/NCI, 2004).

For the assay, the system named is nude mice, LX-1 lung xenograft intrarenal, tumor weight T/C. The experiment in a line: NCI In Vivo Anticancer Drug Screen. Data for tumor model Human Lung LX-1 Xenograft (intrarenal inoculation) in NU/NU Swiss (nude) mice. The note with it: endpoint: mean tumor weight change, higher = larger tumour. Put shortly: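 In vivo, transplantable tumor; compound vs vehicle arms; tumor size measured; value = T/C.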
In general terms: Xenograft models place foreign cells or tissue in a host animal.

Setting [1] is: dose: 12.5 mg/kg/injection, schedule: Q01DX010 (sc), vehicle: saline with Tween-80.
Setting [2] is: dose: 25.0 mg/kg/injection, schedule: Q01DX010 (sc), vehicle: saline with Tween-80.
Where [3] appears, read: dose: 50.0 mg/kg/injection, schedule: Q01DX010 (sc), vehicle: saline with Tween-80.
[4] abbreviates: dose: 150.0 mg/kg/injection, schedule: Q04DX003 (sc), vehicle: saline with Tween-80.
[5] abbreviates: dose: 300.0 mg/kg/injection, schedule: Q04DX003 (sc), vehicle: saline with Tween-80.
Setting [6] is: dose: 600.0 mg/kg/injection, schedule: Q04DX003 (sc), vehicle: saline with Tween-80.
[7] abbreviates: dose: 1200.0 mg/kg/injection, schedule: Q04DX003 (sc), vehicle: saline with Tween-80.
Setting [8] is: dose: 2.0 mg/kg/injection, schedule: Q01DX010 (sc), vehicle: saline.
The mark [9] stands for this setting: dose: 4.0 mg/kg/injection, schedule: Q01DX010 (sc), vehicle: saline.
Where [10] appears, read: dose: 1200.0 mg/kg/injection, schedule: Q04DX003 (sc), vehicle: suspension in saline.

“And” between values parts separate entries of the source, which are not always exact repeats. Identical values can stand only once. Inconclusive results are not listed.

On to `C/C(=C\c1ccccc1)[N+](=O)[O-]`, for which the T/C runs as follows: (dose: 6.25 mg/kg/injection, schedule: Q01DX010 (sc), vehicle: Klucel (hydroxypropylcellulose) (HPC)) 60 % of control; (dose: 12.5 mg/kg/injection, schedule: Q01DX010 (sc), vehicle: Klucel (hydroxypropylcellulose) (HPC)) 56 % of control; (dose: 100.0 mg/kg/injection, schedule: Q01DX010 (sc), vehicle: Klucel (hydroxypropylcellulose) (HPC)) 159 % of control; (dose: 200.0 mg/kg/injection, schedule: Q01DX010 (sc), vehicle: Klucel (hydroxypropylcellulose) (HPC)) 196 % of control.

As for `CCC1CN2C(=N1)c1ccccc1-c1cc(Cl)ccc12` (stereo not drawn), the T/C runs as follows: under setting [1], 54 % of control; under setting [2], 60 % of control; under setting [3], 107 % of control.

For `C[C@@](O)(/C=C/[C@H]1CC=CC(=O)O1)[C@@H](C[C@@H](O)\C=C/C=C\C=C\CO)OP(=O)(O)O`, the T/C reads like this: (dose: 7.5 mg/kg/injection, schedule: Q04DX003 (sc), vehicle: other) 160 % of control; (dose: 15.0 mg/kg/injection, schedule: Q04DX003 (sc), vehicle: other) 168 % of control.

Turning to `C[Si](C)(C)O/C=C1/CCOC1=O`, the T/C is 115 % of control (dose: 50.0 mg/kg/injection, schedule: Q04DX003 (sc), vehicle: suspension in saline); 122 % of control (dose: 100.0 mg/kg/injection, schedule: Q04DX003 (sc), vehicle: suspension in saline); 107 % of control (dose: 200.0 mg/kg/injection, schedule: Q04DX003 (sc), vehicle: suspension in saline); 106 % of control (dose: 400.0 mg/kg/injection, schedule: Q04DX003 (sc), vehicle: suspension in saline).

Regarding `Cc1cn(C2CC(O)C(CO)O2)c(=O)[nH]c1=O` (stereo not drawn), the T/C (dose: 800.0 mg/kg/injection, schedule: Q04DX003 (sc), vehicle: saline) is 94 % of control; the T/C (dose: 1600.0 mg/kg/injection, schedule: Q04DX003 (sc), vehicle: saline) is 70 % of control; the T/C (dose: 3200.0 mg/kg/injection, schedule: Q04DX003 (sc), vehicle: saline) is 71 % of control; the T/C (dose: 6400.0 mg/kg/injection, schedule: Q04DX003 (sc), vehicle: saline) was 61 % of control.

On to `CCCN1COC(OCC)C(C)(C)C1` (stereo not drawn), for which the T/C under setting [4] was 92 % of control, the T/C under setting [5] was 90 % of control, the T/C under setting [6] is 106 % of control and the T/C under setting [7] is 107 % of control.

For the compound `C=CC(=O)N1CN(C(=O)C=C)CN(C(=O)C=C)C1`, the T/C was 92 % of control (dose: 6.25 mg/kg/injection, schedule: Q01DX010 (sc), vehicle: saline with Tween-80); 110 % of control under setting [1]; 67 % of control under setting [2].

As for `CN1C(=O)NC(c2ccc(Cl)cc2)(c2ccc(Cl)cc2)C1=O`, the T/C is, setting by setting: under setting [3], 212 % of control; (dose: 100.0 mg/kg/injection, schedule: Q01DX010 (sc), vehicle: saline with Tween-80) 191 % of control; (dose: 400.0 mg/kg/injection, schedule: Q01DX010 (sc), vehicle: saline with Tween-80) 64 % of control.

`CC1CN1C(=O)NCCCCCCNC(=O)N1CC1C` (stereo not drawn): the T/C (dose: 40.0 mg/kg/injection, schedule: Q04DX003 (sc), vehicle: Klucel (hydroxypropylcellulose) (HPC)) is 6 % of control and 23 % of control.

For `Nc1nc(-c2ccccc2)c(Br)c(=O)[nH]1`, the T/C is, setting by setting: under setting [5], 77 % of control; under setting [6], 69 % of control; under setting [7], 54 % of control; (dose: 2400.0 mg/kg/injection, schedule: Q04DX003 (sc), vehicle: saline with Tween-80) 66 % of control.

Consider `COc1cccc2c1C(=O)c1c(O)c3c(c(O)c1C2=O)CC(O)(/C(C)=N/NC(=O)CCC(=O)N/N=C(\C)C1(O)Cc2c(O)c4c(c(O)c2C(OC2CC(N)C(O)C(C)O2)C1)C(=O)c1c(OC)cccc1C4=O)CC3OC1CC(N)C(O)C(C)O1` (stereo not drawn), for which the T/C by setting is: (dose: 6.25 mg/kg/injection, schedule: Q01DX010 (sc), vehicle: water) 21 % of control (2×) and 27 % of control; (dose: 12.5 mg/kg/injection, schedule: Q01DX010 (sc), vehicle: water) 31 % of control and 46 % of control and 51 % of control.

For the compound `CCOC(=O)[C@]1(Br)CC[C@@]1(Br)C(=O)OCC`, the T/C reads like this: (dose: 800.0 mg/kg/injection, schedule: Q04DX003 (sc), vehicle: saline with Tween-80) 107 % of control; under setting [7], 123 % of control.

Regarding `Cn1cnc([N+](=O)[O-])c1SCC(=O)O`, the T/C is, setting by setting: (dose: 100.0 mg/kg/injection, schedule: Q01DX010 (sc), vehicle: saline) 71 % of control; (dose: 200.0 mg/kg/injection, schedule: Q01DX010 (sc), vehicle: saline) 83 % of control; (dose: 400.0 mg/kg/injection, schedule: Q01DX010 (sc), vehicle: saline) 103 % of control; (dose: 800.0 mg/kg/injection, schedule: Q01DX010 (sc), vehicle: saline) 66 % of control.

Consider `CCOC(=O)C(C)(C)Oc1ccc(Cl)cc1`, for which the T/C was 73 % of control under setting [5], 97 % of control under setting [6] and 81 % of control under setting [7].

As to `Cc1c(N)nc(C(CC(N)=O)NCC(N)C(N)=O)nc1C(=O)NC(C(=O)NC(C)C(O)C(C)C(=O)NC(C(=O)NCCc1nc(-c2nc(C(=O)NCCCNC(C)c3ccccc3)cs2)cs1)C(C)O)C(OC1OC(CO)C(O)C(O)C1OC1OC(CO)C(O)C(OC(N)=O)C1O)c1cnc[nH]1` (stereo not drawn), the T/C is 53 % of control under setting [8]; 32 % of control under setting [9]; 22 % of control and 28 % of control (dose: 16.0 mg/kg/injection, schedule: Q01DX010 (sc), vehicle: saline); 39 % of control (dose: 32.0 mg/kg/injection, schedule: Q01DX010 (sc), vehicle: saline).

On to `CC1=CC2C(O)(CC(CO)=CC3C4C(C)(C)C4(OC(=O)c4ccccc4)C(OC(=O)c4ccccc4)C(C)C32O)C1=O` (stereo not drawn), for which the T/C reads like this: (dose: 1.25 mg/kg/injection, schedule: Q04DX003 (sc), vehicle: saline with Tween-80) 77 % of control; (dose: 2.5 mg/kg/injection, schedule: Q04DX003 (sc), vehicle: saline with Tween-80) 73 % of control; (dose: 5.0 mg/kg/injection, schedule: Q04DX003 (sc), vehicle: saline with Tween-80) 76 % of control; (dose: 10.0 mg/kg/injection, schedule: Q04DX003 (sc), vehicle: saline with Tween-80) 43 % of control.

`C=C(C(=O)O)C(N)C(=O)O` (stereo not drawn): the T/C under setting [10] was 76 % of control.

In the case of `COc1cccc2c1C(=O)c1c(O)c3c(c(O)c1C2=O)C[C@@](O)(C(C)=O)C[C@@H]3OC1CC(N(C)C)C(O)C(C)O1` (stereo partly drawn), the T/C is 200 % of control (dose: 2.0 mg/kg/injection, schedule: Q01DX010 (sc), vehicle: water); 80 % of control (dose: 4.0 mg/kg/injection, schedule: Q01DX010 (sc), vehicle: water); 59 % of control (dose: 6.0 mg/kg/injection, schedule: Q04DX003 (sc), vehicle: water); 88 % of control (dose: 12.0 mg/kg/injection, schedule: Q04DX003 (sc), vehicle: water).

`CCN(CC)CCCC(C)Nc1c2ccc(Cl)cc2nc2ccc(OC)cc12` (stereo not drawn): the T/C was 98 % of control under setting [1]; 102 % of control and 108 % of control under setting [2]; 75 % of control under setting [4]; 41 % of control under setting [5].

For the compound `COc1cccc2c1C(=O)c1c(O)c3c(c(O)c1C2=O)C[C@@](O)(C(C)=O)C[C@@H]3OC1CC(N)C(O)C(C)O1` (stereo partly drawn), the T/C (dose: 0.5 mg/kg/injection, schedule: Q01DX010 (sc), vehicle: saline) is 45 % of control; the T/C (dose: 1.0 mg/kg/injection, schedule: Q01DX010 (sc), vehicle: saline) is 12 % of control; the T/C under setting [8] was 19 % of control; the T/C under setting [9] is 21 % of control.

In the case of `Cc1cn(C2CC(F)C(CO)O2)c(=O)[nH]c1=O` (stereo not drawn), the T/C runs as follows: (dose: 150.0 mg/kg/injection, schedule: Q04DX003 (sc), vehicle: suspension in saline) 54 % of control; (dose: 300.0 mg/kg/injection, schedule: Q04DX003 (sc), vehicle: suspension in saline) 85 % of control; (dose: 600.0 mg/kg/injection, schedule: Q04DX003 (sc), vehicle: suspension in saline) 56 % of control; under setting [10], 37 % of control.
